# Laboratory results reported in ChEMBL document CHEMBL1201862, “PubChem BioAssay data set” (2004).
#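 96-well plates; 48 h exposure; 5 concentrations. Endpoints by linear interpolation between flanking doses. Not reached: highest tested concentration assigned. Here, GI50 denotes the concentration required for 50% inhibition of growth.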 Active and inactive are the calls of the source. Rule as the data show it: active = GI50 up to about 1.1 µM and inactive = higher.
# Assays:
# Test in all cases: NCI anticancer screen, dose series, 48 h
# SF-268 = system: SF-268
# NCI-H23 = system: NCI-H23
# IGROV-1 = system: IGROV-1
# SK-MEL-28 = system: SK-MEL-28
# SK-MEL-2 = system: SK-MEL-2
# SK-OV-3 = system: SK-OV-3
# CCRF-CEM = system: CCRF-CEM
# TK-10 = system: TK-10
# K562 = system: K562
# SN12C = system: SN12C
# RPMI-8226 = system: RPMI-8226
# U-251 = system: U-251
# OVCAR-4 = system: OVCAR-4
# HT-29 = system: HT-29
# Malme-3M = system: Malme-3M
# NCI-H460 = system: NCI-H460
# OVCAR-3 = system: OVCAR-3
# DU-145 = system: DU-145
# OVCAR-5 = system: OVCAR-5
# CAKI-1 = system: CAKI-1
# SNB-19 = system: SNB-19
# BT-549 = system: BT-549
# MCF7 = system: MCF7
# SK-MEL-5 = system: SK-MEL-5
# HOP-62 = system: HOP-62
# RXF 393 = system: RXF 393
# HOP-92 = system: HOP-92
# 786-0 = system: 786-0
# UACC-257 = system: UACC-257
# NCI-H226 = system: NCI-H226
# UACC-62 = system: UACC-62
# UO-31 = system: UO-31
# HCC 2998 = system: HCC 2998
# ACHN = system: ACHN
# HCT-116 = system: HCT-116
# SW-620 = system: SW-620
# MOLT-4 = system: MOLT-4
# HL-60 = system: HL-60
# A498 = system: A498
# SF-295 = system: SF-295
# MDA-MB-231 = system: MDA-MB-231
# NCI-H522 = system: NCI-H522
# KM12 = system: KM12
# MDA-N = system: MDA-N
# HCT-15 = system: HCT-15
# EKVX = system: EKVX
# SR = system: SR
# LOX IMVI = system: LOX IMVI
# COLO 205 = system: COLO 205
# MDA-MB-435 = system: MDA-MB-435
# PC-3 = system: PC-3
# A549 = system: A549
# NCI/ADR-RES = system: NCI/ADR-RES
# Hs-578T = system: Hs-578T
# M14 = system: M14
# OVCAR-8 = system: OVCAR-8
# SNB-75 = system: SNB-75
# SF-539 = system: SF-539
smiles,measurement,setting,value
[N-]=[N+]=CC(=O)OC1CCOCC1,GI50,SF-268,> 100 µM (inactive)
same,GI50,NCI-H23,> 100 µM (inactive)
same,GI50,IGROV-1,> 100 µM (inactive)
same,GI50,SK-MEL-28,> 100 µM (inactive)
same,GI50,SK-MEL-2,> 100 µM (inactive)
same,GI50,SK-OV-3,> 100 µM (inactive)
same,GI50,CCRF-CEM,> 100 µM (inactive)
same,GI50,TK-10,> 100 µM (inactive)
same,GI50,K562,> 100 µM (inactive)
same,GI50,SN12C,> 100 µM (inactive)
same,GI50,RPMI-8226,> 100 µM (inactive)
same,GI50,U-251,> 100 µM (inactive)
same,GI50,OVCAR-4,> 100 µM (inactive)
same,GI50,HT-29,> 100 µM (inactive)
same,GI50,Malme-3M,> 100 µM (inactive)
same,GI50,NCI-H460,> 100 µM (inactive)
same,GI50,OVCAR-3,> 100 µM (inactive)
same,GI50,DU-145,> 100 µM (inactive)
same,GI50,OVCAR-5,> 100 µM (inactive)
same,GI50,CAKI-1,> 100 µM (inactive)
same,GI50,SNB-19,> 100 µM (inactive)
same,GI50,BT-549,> 100 µM (inactive)
same,GI50,MCF7,> 100 µM (inactive)
same,GI50,SK-MEL-5,> 100 µM (inactive)
same,GI50,HOP-62,> 100 µM (inactive)
same,GI50,RXF 393,> 100 µM (inactive)
same,GI50,HOP-92,> 100 µM (inactive)
same,GI50,786-0,> 100 µM (inactive)
same,GI50,UACC-257,> 100 µM (inactive)
same,GI50,NCI-H226,> 100 µM (inactive)
same,GI50,UACC-62,> 100 µM (inactive)
same,GI50,UO-31,> 100 µM (inactive)
same,GI50,HCC 2998,> 100 µM (inactive)
same,GI50,ACHN,> 100 µM (inactive)
same,GI50,HCT-116,> 100 µM (inactive)
same,GI50,SW-620,> 100 µM (inactive)
same,GI50,MOLT-4,> 100 µM (inactive)
same,GI50,HL-60,> 100 µM (inactive)
same,GI50,A498,> 100 µM (inactive)
same,GI50,SF-295,> 100 µM (inactive)
same,GI50,MDA-MB-231,> 100 µM (inactive)
same,GI50,NCI-H522,> 100 µM (inactive)
same,GI50,KM12,> 100 µM (inactive)
same,GI50,MDA-N,> 100 µM (inactive)
same,GI50,HCT-15,> 100 µM
same,GI50,EKVX,> 100 µM (inactive)
same,GI50,SR,> 100 µM (inactive)
same,GI50,LOX IMVI,> 100 µM (inactive)
same,GI50,COLO 205,> 100 µM (inactive)
same,GI50,MDA-MB-435,> 100 µM (inactive)
same,GI50,PC-3,> 100 µM (inactive)
O=C(O)CSc1nnc2c3ccccc3c3ccccc3c2n1,GI50,SF-268,56.1 µM (inactive)
same,GI50,NCI-H23,> 100 µM (inactive)
same,GI50,IGROV-1,55.6 µM (inactive)
same,GI50,SK-MEL-28,> 100 µM (inactive)
same,GI50,SK-MEL-2,> 100 µM (inactive)
same,GI50,SK-OV-3,71 µM (inactive)
same,GI50,A549,49.5 µM (inactive)
same,GI50,TK-10,> 100 µM (inactive)
same,GI50,K562,59.6 µM (inactive)
same,GI50,SN12C,38.9 µM (inactive)
same,GI50,RPMI-8226,32.4 µM (inactive)
same,GI50,U-251,46.8 µM (inactive)
same,GI50,NCI/ADR-RES,> 100 µM (inactive)
same,GI50,OVCAR-4,45.6 µM (inactive)
same,GI50,HT-29,68.4 µM (inactive)
same,GI50,Malme-3M,30 µM (inactive)
same,GI50,NCI-H460,31.8 µM (inactive)
same,GI50,OVCAR-3,33.3 µM (inactive)
same,GI50,DU-145,57.9 µM (inactive)
same,GI50,OVCAR-5,> 100 µM (inactive)
same,GI50,CAKI-1,> 100 µM (inactive)
same,GI50,Hs-578T,70.6 µM (inactive)
same,GI50,M14,47.1 µM (inactive)
same,GI50,SNB-19,44.7 µM (inactive)
same,GI50,BT-549,> 100 µM (inactive)
same,GI50,MCF7,40.3 µM (inactive)
same,GI50,SK-MEL-5,45.9 µM (inactive)
same,GI50,HOP-62,46 µM (inactive)
same,GI50,RXF 393,57.9 µM (inactive)
same,GI50,HOP-92,> 100 µM (inactive)
same,GI50,786-0,56.2 µM (inactive)
same,GI50,UACC-257,> 100 µM (inactive)
same,GI50,NCI-H226,85.7 µM (inactive)
same,GI50,UACC-62,61.9 µM (inactive)
same,GI50,UO-31,33.6 µM (inactive)
same,GI50,HCC 2998,52.6 µM (inactive)
same,GI50,ACHN,53.6 µM (inactive)
same,GI50,HCT-116,38.2 µM (inactive)
same,GI50,SW-620,42.7 µM (inactive)
same,GI50,A498,> 100 µM (inactive)
same,GI50,SF-295,41.8 µM (inactive)
same,GI50,MDA-MB-231,67.3 µM (inactive)
same,GI50,OVCAR-8,50.4 µM (inactive)
same,GI50,SNB-75,36.6 µM (inactive)
same,GI50,NCI-H522,49.9 µM (inactive)
same,GI50,KM12,42 µM (inactive)
same,GI50,MDA-N,73.8 µM (inactive)
same,GI50,HCT-15,44.5 µM
same,GI50,EKVX,63 µM (inactive)
same,GI50,SR,31.9 µM (inactive)
same,GI50,LOX IMVI,41.6 µM (inactive)
same,GI50,COLO 205,> 100 µM (inactive)
same,GI50,MDA-MB-435,52 µM (inactive)
same,GI50,PC-3,50.2 µM (inactive)
same,GI50,SF-539,52.2 µM (inactive)
Cc1cccc(-c2cc(O)c3cccnc3n2)c1,GI50,SF-268,59 µM (inactive)
same,GI50,NCI-H23,2.79 µM (inactive)
same,GI50,IGROV-1,0.914 µM (active)
same,GI50,SK-MEL-28,0.406 µM (active)
same,GI50,SK-OV-3,0.569 µM (active)
same,GI50,CCRF-CEM,0.935 µM (active)
same,GI50,A549,1.34 µM (inactive)
same,GI50,K562,0.0993 µM (active)
same,GI50,SN12C,2.75 µM (inactive)
same,GI50,RPMI-8226,0.679 µM (active)
same,GI50,U-251,0.449 µM (active)
same,GI50,NCI/ADR-RES,0.618 µM (active)
same,GI50,OVCAR-4,24 µM (inactive)
same,GI50,HT-29,0.264 µM (active)
same,GI50,NCI-H460,0.475 µM (active)
same,GI50,OVCAR-3,0.301 µM (active)
same,GI50,DU-145,3.94 µM (inactive)
same,GI50,OVCAR-5,2.96 µM (inactive)
same,GI50,Hs-578T,0.444 µM (active)
same,GI50,M14,0.555 µM (active)
same,GI50,SNB-19,1.69 µM (inactive)
same,GI50,BT-549,> 100 µM (inactive)
same,GI50,MCF7,0.378 µM (active)
same,GI50,SK-MEL-5,0.467 µM (active)
same,GI50,HOP-62,17.6 µM (inactive)
same,GI50,RXF 393,6.24 µM (inactive)
same,GI50,HOP-92,88.3 µM (inactive)
same,GI50,786-0,0.569 µM (active)
same,GI50,NCI-H226,4.44 µM (inactive)
same,GI50,UACC-62,0.292 µM (active)
same,GI50,UO-31,> 100 µM (inactive)
same,GI50,HCC 2998,1.98 µM (inactive)
same,GI50,ACHN,18.7 µM (inactive)
same,GI50,HCT-116,0.385 µM (active)
same,GI50,SW-620,0.431 µM (active)
same,GI50,MOLT-4,0.902 µM (active)
same,GI50,HL-60,0.128 µM (active)
same,GI50,SF-295,1.36 µM (inactive)
same,GI50,MDA-MB-231,2.09 µM (inactive)
same,GI50,OVCAR-8,1.35 µM (inactive)
same,GI50,SNB-75,1.26 µM (inactive)
same,GI50,NCI-H522,0.553 µM (active)
same,GI50,KM12,0.173 µM (active)
same,GI50,MDA-N,0.0431 µM (active)
same,GI50,HCT-15,0.299 µM
same,GI50,EKVX,2.34 µM (inactive)
same,GI50,SR,0.0946 µM (active)
same,GI50,LOX IMVI,0.512 µM (active)
same,GI50,COLO 205,0.236 µM (active)
same,GI50,MDA-MB-435,0.0298 µM (active)
same,GI50,PC-3,1.12 µM (inactive)
same,GI50,SF-539,0.92 µM (active)
